Test results taken from patent US20250121024A1, “COMBINED USE OF IMIQUIMOD AND A CASEIN HYDROLYSATE FOR THE TREATMENT OF CONDYLOMA” (NTD LABS, S.L.U., priority 2021, published 2025).

Test system: condyloma
Assay: Controlled, observational clinical trials of topical 5% imiquimod, oral casein hydrolysate and their combination in patients suffering from condyloma
Assay type: in vivo, human
Conditions: for Total resolution rate of condyloma (%): percentage of patients with total resolution
Method: The efficacy of the combination of imiquimod and a casein hydrolysate, according to the characteristics defined in the present invention, for the treatment of patients with condyloma was evaluated. Specifically, it was evaluated whether oral supplementation with the casein hydrolysate in patients treated with topical 5% imiquimod produced an improvement in treatment efficacy (rate of complete resolution of condyloma) and/or reduced recurrences (rate of recurrences) after the treatment.
A controlled, observational clinical trial was carried out, which included 44 female patients suffering from condyloma, who were divided into two groups: • Imiquimod group (I) (24 patients): treated with 5% imiquimod cream (3 times per week for up to 16 weeks). • Imiquimod+casein hydrolysate group (I+C) (20 patients): treated with 5% imiquimod cream (3 times per week for up to 16 weeks) plus oral casein hydrolysate (6 g once per day, for 6 months).
Likewise, a controlled, observational clinical trial was carried out with 20 patients suffering from condyloma (Group casein hydrolysate (C)) who were treated only with oral casein hydrolysate for 6 months (6 grams, once per day).
A commercially available casein hydrolysate (HuPaVir®) and a commercially available 5% imiquimod cream (Aldara® 5% cream) were used in the study.
In particular, the evaluation of patients at 4, 8, 12 and 16 weeks after starting treatment is included, as well as after 6 months (for group C some points are not available), wherein the percentage of patients with total resolution of condyloma during treatment (up to 16 weeks) and the recurrence rate 6 months after starting the treatment is reported.

## CC(C)Cn1cnc2c(N)nc3ccccc3c21 [I, 1-(2-methylpropyl)-1H-imidazo[4,5-c]quinoline-4-amine]
4 weeks after starting treatment
  Total resolution rate of condyloma (%): 8.33%
6 months after starting the treatment
  Recurrence rate (%): 14.3%
8 weeks after starting treatment
  Total resolution rate of condyloma (%): 28.57%
12 weeks after starting treatment
  Total resolution rate of condyloma (%): 58.33%
12 weeks after starting treatment, listed as imiquimod
  Total resolution rate of condyloma (%): 58%
16 weeks after starting treatment
  Total resolution rate of condyloma (%): 72.72%
